# In PMC6044785 (ACS Omega, 2017):
# Like-named read-outs stand apart in the source and are kept apart here. Square brackets hold non-standard residues; d marks the D form. Peptide text beside a SMILES is read from it. Gly(But-3-enyl) = C=CCC[C@H](N)C(=O)O; Aib = CC(C)(N)C(=O)O
# Assays:
# HeLa nuclear extract = assay: HDAC inhibition assay with HeLa nuclear extract; type: biochemical, human; settings: read-out: IC50 (μM) HeLa nuclear extract; Table 1; mean ± SD of three independent experiments; >100 = not active (inhibition < 50% at 100 μM)
# HDAC6 = target: T1, HDAC6 (Homo sapiens, UniProt Q9UBN7); assay: HDAC6 enzymatic inhibition assay; type: biochemical
# T1 sequence (Q9UBN7 1-1215): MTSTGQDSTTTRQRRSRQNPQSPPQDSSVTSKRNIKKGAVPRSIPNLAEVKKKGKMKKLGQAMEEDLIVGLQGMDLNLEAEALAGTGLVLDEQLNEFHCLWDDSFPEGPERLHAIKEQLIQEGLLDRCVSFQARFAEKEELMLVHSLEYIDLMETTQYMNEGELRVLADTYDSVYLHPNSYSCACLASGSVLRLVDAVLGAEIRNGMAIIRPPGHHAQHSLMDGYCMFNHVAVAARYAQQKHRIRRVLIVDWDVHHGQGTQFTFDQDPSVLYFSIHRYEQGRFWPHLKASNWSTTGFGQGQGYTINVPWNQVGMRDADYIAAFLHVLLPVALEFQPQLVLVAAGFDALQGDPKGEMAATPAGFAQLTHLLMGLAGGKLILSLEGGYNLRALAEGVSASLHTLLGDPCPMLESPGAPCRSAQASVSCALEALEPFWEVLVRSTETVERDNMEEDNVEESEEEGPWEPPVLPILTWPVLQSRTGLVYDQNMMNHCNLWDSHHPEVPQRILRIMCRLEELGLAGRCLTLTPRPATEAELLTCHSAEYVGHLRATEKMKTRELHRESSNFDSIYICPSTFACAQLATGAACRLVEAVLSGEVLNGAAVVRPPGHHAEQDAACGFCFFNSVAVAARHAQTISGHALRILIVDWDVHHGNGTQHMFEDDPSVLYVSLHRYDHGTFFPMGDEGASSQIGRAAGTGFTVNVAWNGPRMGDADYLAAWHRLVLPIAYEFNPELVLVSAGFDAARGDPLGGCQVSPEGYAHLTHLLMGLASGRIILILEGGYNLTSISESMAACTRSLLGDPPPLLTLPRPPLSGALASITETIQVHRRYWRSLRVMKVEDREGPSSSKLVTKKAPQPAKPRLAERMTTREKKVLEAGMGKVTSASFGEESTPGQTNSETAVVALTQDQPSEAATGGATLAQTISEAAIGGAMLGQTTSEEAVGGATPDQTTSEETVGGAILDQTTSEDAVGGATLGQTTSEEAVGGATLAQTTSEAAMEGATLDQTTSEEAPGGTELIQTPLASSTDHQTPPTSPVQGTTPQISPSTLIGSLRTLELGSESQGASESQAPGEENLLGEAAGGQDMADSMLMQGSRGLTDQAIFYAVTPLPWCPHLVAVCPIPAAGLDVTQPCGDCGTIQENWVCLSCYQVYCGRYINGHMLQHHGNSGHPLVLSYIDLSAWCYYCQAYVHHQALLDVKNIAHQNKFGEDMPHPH
# HDAC1 = HDAC1 (Homo sapiens, UniProt Q13547); assay: HDAC1 enzymatic inhibition assay; type: biochemical
# HDAC1, sequence (Q13547 whole entry): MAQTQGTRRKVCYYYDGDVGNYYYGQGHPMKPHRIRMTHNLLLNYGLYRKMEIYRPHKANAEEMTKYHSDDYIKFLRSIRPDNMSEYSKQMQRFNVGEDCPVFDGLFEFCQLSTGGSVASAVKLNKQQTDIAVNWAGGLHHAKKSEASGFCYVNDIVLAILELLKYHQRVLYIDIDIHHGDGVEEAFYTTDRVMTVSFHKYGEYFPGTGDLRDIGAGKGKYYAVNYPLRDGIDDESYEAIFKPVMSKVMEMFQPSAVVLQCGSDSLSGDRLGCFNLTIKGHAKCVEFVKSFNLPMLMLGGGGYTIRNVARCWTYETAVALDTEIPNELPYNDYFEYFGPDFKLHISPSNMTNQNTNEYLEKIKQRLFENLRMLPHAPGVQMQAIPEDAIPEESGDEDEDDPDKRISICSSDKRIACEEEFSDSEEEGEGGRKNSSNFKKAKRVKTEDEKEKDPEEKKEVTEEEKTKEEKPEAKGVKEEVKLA
# HDAC3/NCOR2 = HDAC3/NCOR2 (Homo sapiens, UniProt O15379); assay: HDAC3/NCOR2 enzymatic inhibition assay; type: biochemical
# HDAC3/NCOR2, sequence (O15379 whole entry): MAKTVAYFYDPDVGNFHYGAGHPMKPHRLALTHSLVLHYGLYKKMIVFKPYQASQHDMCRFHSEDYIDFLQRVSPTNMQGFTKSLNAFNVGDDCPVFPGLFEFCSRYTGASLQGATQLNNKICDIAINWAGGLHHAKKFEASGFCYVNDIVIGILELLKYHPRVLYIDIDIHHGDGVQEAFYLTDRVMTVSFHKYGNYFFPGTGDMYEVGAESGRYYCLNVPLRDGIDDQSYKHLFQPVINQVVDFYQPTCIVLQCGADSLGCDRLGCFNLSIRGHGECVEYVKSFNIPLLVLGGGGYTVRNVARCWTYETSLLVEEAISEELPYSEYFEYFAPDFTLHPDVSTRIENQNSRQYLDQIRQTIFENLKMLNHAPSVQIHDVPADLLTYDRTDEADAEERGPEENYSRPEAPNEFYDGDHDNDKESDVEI
# HDAC3/NCOR2, sequence (Q9Y618 395-489 partner limits assumed): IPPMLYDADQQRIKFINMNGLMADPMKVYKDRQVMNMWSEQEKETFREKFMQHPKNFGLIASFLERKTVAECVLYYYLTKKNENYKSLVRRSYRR
# HDAC4 = HDAC4 (Homo sapiens, UniProt P56524); assay: HDAC4 enzymatic inhibition assay; type: biochemical
# HDAC4, sequence (P56524 whole entry): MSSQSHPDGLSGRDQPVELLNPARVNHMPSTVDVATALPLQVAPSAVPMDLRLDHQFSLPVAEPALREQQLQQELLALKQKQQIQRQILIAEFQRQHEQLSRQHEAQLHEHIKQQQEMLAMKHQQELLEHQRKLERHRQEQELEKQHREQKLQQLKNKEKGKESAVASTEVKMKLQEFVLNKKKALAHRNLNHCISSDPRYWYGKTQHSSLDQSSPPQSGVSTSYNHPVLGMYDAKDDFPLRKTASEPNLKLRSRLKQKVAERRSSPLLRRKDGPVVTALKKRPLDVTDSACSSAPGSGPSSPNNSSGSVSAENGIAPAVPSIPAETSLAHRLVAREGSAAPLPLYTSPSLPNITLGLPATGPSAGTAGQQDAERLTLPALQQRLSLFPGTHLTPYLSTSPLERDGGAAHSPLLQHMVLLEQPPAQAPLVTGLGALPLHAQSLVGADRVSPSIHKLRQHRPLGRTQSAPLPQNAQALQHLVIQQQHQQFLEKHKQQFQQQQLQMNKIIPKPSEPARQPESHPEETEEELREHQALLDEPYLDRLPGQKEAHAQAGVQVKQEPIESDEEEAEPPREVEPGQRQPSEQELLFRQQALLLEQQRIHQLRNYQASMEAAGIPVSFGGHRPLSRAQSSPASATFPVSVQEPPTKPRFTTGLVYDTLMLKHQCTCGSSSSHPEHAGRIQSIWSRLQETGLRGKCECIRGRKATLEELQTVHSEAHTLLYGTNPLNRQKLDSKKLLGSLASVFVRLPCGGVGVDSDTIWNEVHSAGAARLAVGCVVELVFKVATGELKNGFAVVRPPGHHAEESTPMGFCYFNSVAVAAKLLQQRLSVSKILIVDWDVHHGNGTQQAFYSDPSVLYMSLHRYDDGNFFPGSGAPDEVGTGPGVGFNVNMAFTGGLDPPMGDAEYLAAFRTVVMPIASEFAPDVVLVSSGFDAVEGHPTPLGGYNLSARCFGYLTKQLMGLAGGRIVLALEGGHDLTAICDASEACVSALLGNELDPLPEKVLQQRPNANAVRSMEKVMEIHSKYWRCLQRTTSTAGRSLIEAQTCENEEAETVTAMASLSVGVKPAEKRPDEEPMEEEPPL
# HDAC8 = target: T2, HDAC8 (Homo sapiens, UniProt Q9BY41); assay: HDAC8 enzymatic inhibition assay; type: biochemical
# T2 sequence (Q9BY41 1-377): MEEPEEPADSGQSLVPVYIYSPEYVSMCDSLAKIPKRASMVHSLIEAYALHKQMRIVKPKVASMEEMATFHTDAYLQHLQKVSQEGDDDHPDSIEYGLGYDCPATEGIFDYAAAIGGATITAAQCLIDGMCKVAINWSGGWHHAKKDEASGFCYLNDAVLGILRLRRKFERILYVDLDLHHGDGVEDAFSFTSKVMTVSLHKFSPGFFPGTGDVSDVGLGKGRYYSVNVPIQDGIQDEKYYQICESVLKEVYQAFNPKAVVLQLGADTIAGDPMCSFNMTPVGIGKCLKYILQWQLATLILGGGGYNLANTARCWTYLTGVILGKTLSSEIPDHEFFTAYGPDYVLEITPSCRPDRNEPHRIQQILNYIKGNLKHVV
# HeLa = assay: Antiproliferative activity on HeLa cells; type: cell-based, human; settings: 72 h, read-out: GI50 (μM) HeLa
# HEK293 = assay: Antiproliferative activity on HEK293 cells; type: cell-based, human; settings: read-out: GI50 (μM) HEK293
# P. falciparum [1] = settings: read-out: GI50 (μM) P. falciparum; Table 3; ref [22]; cited from earlier work
# Jurkat [2] = settings: read-out: GI50 (μM) Jurkat; Table 3; ref [22]; cited from earlier work
# K562 [3] = settings: read-out: GI50 (μM) K562; Table 3; ref [22]; cited from earlier work
# T. gondii RH strain = settings: read-out: IC50 T. gondii RH strain; ref [22]; cited from earlier work
# P. falciparum [4] = assay: P. falciparum [3H]-hypoxanthine incorporation assay; type: cell-based, Plasmodium falciparum 3D7 strain; settings: Plasmodium falciparum, 3D7, read-out: GI50 (μM) P. falciparum
# Jurkat [5] = assay: Antiproliferative activity on Jurkat cells; type: cell-based; settings: Homo sapiens, read-out: GI50 (μM) Jurkat
# K562 [6] = assay: Antiproliferative activity on K562 cells; type: cell-based; settings: Homo sapiens, K562, read-out: GI50 (μM) K562
# normal B lymphocytes = assay: Antiproliferative activity on normal B lymphocytes; type: cell-based; settings: Homo sapiens, Lymphocyte, 72 h, read-out: GI50 normal B lymphocytes
smiles,measurement,setting,value
"C[C@@H](O)C(=O)CCCCCC(=O)Nc1ccccc1 [Compound 11a, (R)-8-Hydroxy-7-oxo-N-phenylnonanamide]",IC50,HeLa nuclear extract,> 100 µM
same,IC50,HDAC6,101 ± 2.9 µM
C[C@@H](O)C(=O)CCCCC[C@@H]1NC(=O)[C@H]2CCCN2C(=O)[C@H](Cc2ccccc2)NC(=O)C(C)(C)NC1=O [Compound 3],IC50,HeLa nuclear extract,0.0081 ± 0.0019 µM
same,IC50,HDAC6,> 300 µM
same,IC50,HDAC1,0.96 ± 0.6 µM
same,IC50,HDAC3/NCOR2,0.33 ± 0.01 µM
same,IC50,HDAC4,> 100 µM
same,IC50,HDAC8,7.02 ± 1.53 µM
same,GI50,HeLa; Homo sapiens,0.17 ± 0.01 µM
same,GI50,"HEK293; Homo sapiens, HEK293, 72 h",0.04 ± 0.02 µM
same,GI50,P. falciparum [1],0.0174 ± 0.002 µM
same,GI50,Jurkat [2],0.048 ± 0.001 µM
same,GI50,K562 [3],0.018 ± 0.002 µM
same,IC50,T. gondii RH strain,0.0286 µM
"C[C@H](O)C(=O)CCCCCCC(=O)Nc1ccccc1 [Compound 11f, (S)-9-Hydroxy-8-oxo-N-phenyldecanamide]",IC50,HeLa nuclear extract,77.1 ± 6.4 µM
same,IC50,HDAC6,> 300 µM
"C[C@@H](O)C(=O)CCCCCCC(=O)Nc1ccccc1 [Compound 11b, (R)-9-Hydroxy-8-oxo-N-phenyldecanamide]",IC50,HeLa nuclear extract,8.9 ± 0.5 µM
same,IC50,HDAC6,> 300 µM
same,IC50,HDAC1,7.9 ± 0.8 µM
same,IC50,HDAC3/NCOR2,50.2 ± 4.7 µM
same,IC50,HDAC4,> 100 µM
same,IC50,HDAC8,> 100 µM
same,GI50,P. falciparum [4],37.9 ± 3.8 µM
same,GI50,Jurkat [5],92 ± 1 µM
same,GI50,K562 [6],62.3 ± 5.8 µM
same,GI50,HeLa; Homo sapiens,> 50 µM
same,GI50,"HEK293; Homo sapiens, HEK293, 72 h",35.6 ± 1.6 µM
"C[C@H](O)C(=O)CCCCCCC(=O)Nc1cccc(-c2cn(-c3ccccc3)nn2)c1 [Compound 11e, (S)-9-Hydroxy-8-oxo-N-(3-(1-phenyl-1H-1,2,3-triazol-4-yl)phenyl)decanamide]",IC50,HeLa nuclear extract,0.88 ± 0.05 µM
same,IC50,HDAC6,> 300 µM
same,IC50,HDAC1,5.04 ± 0.07 µM
same,IC50,HDAC3/NCOR2,1.97 ± 0.03 µM
same,IC50,HDAC4,> 100 µM
same,IC50,HDAC8,> 100 µM
same,GI50,P. falciparum [4],4.85 ± 1.3 µM
same,GI50,Jurkat [5],2.84 ± 0.7 µM
same,GI50,K562 [6],7.12 ± 0.9 µM
same,GI50,HeLa; Homo sapiens,115 ± 25.3 µM
same,GI50,"HEK293; Homo sapiens, HEK293, 72 h",15.9 ± 1.13 µM
same,GI50,normal B lymphocytes,> 50 µM
"C[C@@H](O)C(=O)CCCCCCCC(=O)Nc1ccccc1 [Compound 11c, (R)-10-Hydroxy-9-oxo-N-phenylundecanamide]",IC50,HeLa nuclear extract,27.3 ± 5.9 µM
same,IC50,HDAC6,> 300 µM
C=CCC[C@@H]1NC(=O)[C@H]2CCCN2C(=O)[C@H](Cc2ccccc2)NC(=O)C(C)(C)NC1=O [Compound 14] (cyclo([Aib]F[dP][Gly(But-3-enyl)])),IC50,HDAC6,> 300 µM
"CCC(=O)CCCCCCC(=O)Nc1ccccc1 [Compound 11g, 8-Oxo-N-phenyldecanamide]",IC50,HeLa nuclear extract,> 100 µM
same,IC50,HDAC6,> 300 µM
"CC(=O)O[C@H](C)C(=O)CCCCCCC(=O)Nc1ccccc1 [Compound 12b, (R)-3,10-Dioxo-10-(phenylamino)decan-2-yl Acetate]",IC50,HeLa nuclear extract,63.8 ± 5.3 µM
same,IC50,HDAC6,> 300 µM
same,GI50,P. falciparum [4],40.1 ± 4.3 µM
same,GI50,Jurkat [5],≥ 100 µM
same,GI50,K562 [6],≥ 100 µM
same,GI50,HeLa; Homo sapiens,> 50 µM
same,GI50,"HEK293; Homo sapiens, HEK293, 72 h",36.3 ± 1.7 µM
CC(=O)O[C@H](C)C(=O)CCCCC[C@@H]1NC(=O)[C@H]2CCCN2C(=O)[C@H](Cc2ccccc2)NC(=O)C(C)(C)NC1=O [Compound 13],IC50,HeLa nuclear extract,0.11 ± 0.0008 µM
same,IC50,HDAC6,> 300 µM
same,IC50,HDAC1,0.39 ± 0.02 µM
same,IC50,HDAC3/NCOR2,0.35 ± 0.003 µM
same,IC50,HDAC4,> 100 µM
same,IC50,HDAC8,1.87 ± 0.42 µM
same,GI50,"HeLa; Table 3, XTT",0.119 ± 0.008 µM
same,GI50,"HEK293; Table 3, 72 h, XTT",0.006 ± 0.001 µM
same,GI50,P. falciparum [1],0.0221 ± 0.001 µM
same,GI50,Jurkat [2],0.127 ± 0.011 µM
same,GI50,K562 [3],0.061 ± 0.002 µM
